Experimental data from ChEMBL document CHEMBL1795222, “Pyridazine-derived γ-secretase modulators” (Bioorg Med Chem Lett, 2011).
Calls of active or inactive are those of the source. The calls are words filed in the database; no cut-off is given here.

Key:
[1] = Inhibition of gamma-secretase expressed in african green monkey CV1 cells coexpressing Gal4 DNA-binding/transactivation domain assessed as inhibition of notch processing after 22 hrs by luciferase reporter assay; assay type: cell-based; conditions: CV-1, 22 h
Gamma-secretase [2] = test: Inhibition of gamma-secretase in human SHSY5Y cells expressing Swedish variant of APP K595N/M596L assessed as reduction of amyloid beta 40 formation after 16 hrs by ELISA; assay type: cell-based; conditions: sh-sy5y
Gamma-secretase [3] = test: Inhibition of gamma-secretase in human SHSY5Y cells expressing Swedish variant of APP K595N/M596L assessed as reduction of amyloid beta 42 formation after 16 hrs by ELISA; assay type: cell-based; conditions: sh-sy5y
CV-1 = test: Agonist activity at gamma-secretase expressed in african green monkey CV1 cells coexpressing Gal4 DNA-binding/transactivation domain assessed as increase of notch processing at 10 uM after 22 hrs by luciferase reporter assay; assay type: cell-based
Rattus norvegicus = test: Antialzheimer activity in rat assessed as reduction of amyloid beta 42 level in brain at 30 mg/kg, po after 6 hrs; assay type: functional; design: scale not given: the % may be the effect or the level left
SH-SY5Y = test: Cytotoxicity against human SH-SY5Y cells assessed as effect of cell viability at 100 uM after 24 hrs by WST1 assay; assay type: cell-based
[4] = Drug level in rat blood at 30 mg/kg, po after 6 hrs; assay type: ADME, organism-based; design: dose 30 mg/kg, route oral; conditions: read-out: Drug uptake
[5] = Ratio of drug level in brain to blood in rat at 30 mg/kg, po after 6 hrs; assay type: ADME, organism-based; design: dose 30 mg/kg, route oral; conditions: read-out: BBR
[6] = Drug level in rat brain at 30 mg/kg, po after 6 hrs; assay type: ADME, organism-based; design: dose 30 mg/kg, route oral; conditions: read-out: Drug uptake
[7] = Half life in Sprague-Dawley rat at 1 mg/kg, iv and 2 mg/kg, po; assay type: ADME, organism-based; conditions: in vivo
[8] = Oral bioavailability in Sprague-Dawley rat at 2 mg/kg; assay type: ADME, organism-based; conditions: in vivo
[9] = Volume of distribution at steady state in Sprague-Dawley rat at 1 mg/kg, iv and 2 mg/kg, po; assay type: ADME, organism-based; conditions: in vivo, read-out: Vdss
[10] = Clearance in Sprague-Dawley rat blood at 1 mg/kg, iv and 2 mg/kg, po; assay type: ADME, organism-based
[11] = molecular target: T1, Gamma-secretase (Homo sapiens) (UniProt Q96BI3+Q9NZ42+Q8WW43+P49768+Q92542+P49810); test: Inhibition of gamma-secretase in human SHSY5Y cells expressing Swedish variant of APP K595N/M596L assessed as reduction of amyloid beta 42 level after 24 hrs by DELFIA; assay type: cell-based; conditions: SH-SY5Y
[12] = molecular target: T1, Gamma-secretase (Homo sapiens); test: Inhibition of gamma-secretase in human SHSY5Y cells expressing Swedish variant of APP K595N/M596L assessed as reduction of total amyloid beta level after 24 hrs by DELFIA; assay type: cell-based; conditions: SH-SY5Y
[13] = molecular target: T1, Gamma-secretase (Homo sapiens); test: Inhibition of gamma-secretase in human SHSY5Y cells expressing Swedish variant of APP K595N/M596L assessed as reduction of amyloid beta 40 level after 24 hrs by DELFIA; assay type: cell-based; conditions: SH-SY5Y

| SMILES | IC50 [1] [µM] | pIC50 (Gamma-secretase [2]) | pIC50 (Gamma-secretase [3]) | further results |
| --- | --- | --- | --- | --- |
| CCc1cc(-c2ccc(-n3cnc(C)c3)c(OC)c2)nnc1N[C@@H](C)c1ccc(F)cc1 |  | 6.8 | 7.2 | Activity (CV-1): > 30% |
| COc1cc(-c2cc(C(F)(F)F)c(N[C@@H](C)c3ccc(F)cc3)nn2)ccc1-n1cnc(C)c1 |  | 5.6 | 7 | Activity (CV-1): > 30% |
| COc1cc(-c2nnc(N[C@@H](C)c3ccc(F)cc3)c(C)c2C)ccc1-n1cnc(C)c1 | > 20 | 5.9 | 6.5 |  |
| COc1cc(-c2nnc(N[C@@H](C)c3ccc(F)cc3)cc2C)ccc1-n1cnc(C)c1 | 15.8 | 6.3 | 6.7 |  |
| COc1cc(-c2cc(C)c(N[C@@H](C)c3ccc(F)cc3)nn2)ccc1-n1cnc(C)c1.Cl |  |  |  | half-life [7]: 3.1 h; bioavailability [8]: 98%; Vd [9]: 1.4 L/kg; clearance [10]: 5.1 mL/min/kg |
| COc1cc(-c2cc(C)c(N[C@@H](C)c3ccc(F)cc3)nn2)ccc1-n1cnc(C)c1 [listing 2 of 2 here] |  |  |  | inhibition [11]: Dose-dependent effect; inhibition [12]: Active; inhibition [13]: Dose-dependent effect |
| COc1cc(-c2cc(C#N)c(N[C@@H](C)c3ccc(F)cc3)nn2)ccc1-n1cnc(C)c1 | 15.8 | 5.8 | 6.9 |  |
| COC[C@H](Nc1ccc(-c2ccc(-n3cnc(C)c3)c(OC)c2)nn1)c1ccccc1 | > 20 | 6.5 | 6.8 |  |
| COc1cc(-c2cc(C(C)C)c(N[C@@H](C)c3ccc(F)cc3)nn2)ccc1-n1cnc(C)c1 |  | 7 | 7.3 | Activity (CV-1): > 30% |
| COc1cc(-c2ccc(N[C@@H](C)c3ccccc3)nn2)ccc1-n1cnc(C)c1 | > 20 | 6.8 | 7.1 |  |

Further lines, with some results ahead:

| IC50 [1] [µM] | pIC50 (Gamma-secretase [2]) | pIC50 (Gamma-secretase [3]) | SMILES | further results |
| --- | --- | --- | --- | --- |
| > 20 | 6 | 6.2 | COc1cc(-c2ccc(N[C@H](C)c3ccc(F)cc3)nn2)ccc1-n1cnc(C)c1 |  |
| > 20 | 6.9 | 7.3 | COc1cc(-c2ccc(N[C@@H](C)c3ccc(C(F)(F)F)cc3)nn2)ccc1-n1cnc(C)c1 |  |
| > 20 | 6.2 | 6.5 | COc1cc(-c2ccc(NCc3ccc(F)cc3)nn2)ccc1-n1cnc(C)c1 |  |
| 10 | 6.7 | 7.2 | COc1cc(-c2cc(C)c(N[C@@H](C)c3ccc(F)cc3)nn2)ccc1-n1cnc(C)c1 [listing 1 of 2 here] | Activity (Rattus norvegicus): >20%; Activity (SH-SY5Y): Toxic; concentration at 6 h [4]: 16 µM; Kp at 6 h [5]: 0.56; concentration at 6 h [6]: 9.09 µM |
| 1 | 4.7 | 5.6 | COc1cc(-c2ccc(NC(=O)c3ccc(F)cc3)nn2)ccc1-n1cnc(C)c1 |  |
| 10 | 7.1 | 7.3 | COc1cc(-c2ccc(N[C@@H](C)c3ccccc3F)nn2)ccc1-n1cnc(C)c1 |  |
| > 20 | 6.8 | 6.8 | COc1ccc([C@H](C)Nc2ccc(-c3ccc(-n4cnc(C)c4)c(OC)c3)nn2)cc1 |  |
| > 20 | 6.9 | 7.2 | COc1cc(-c2ccc(N[C@@H](C)c3cccc(F)c3)nn2)ccc1-n1cnc(C)c1 |  |
|  | 6.1 | 7 | COc1cc(-c2ccc(NC(C)(C)c3ccc(F)cc3)nn2)ccc1-n1cnc(C)c1 | Activity (CV-1): > 30% |
| 10 | 6.9 | 7.3 | CC[C@H](Nc1ccc(-c2ccc(-n3cnc(C)c3)c(OC)c2)nn1)c1ccc(F)cc1 |  |
| 20 | 6.8 | 7.4 | COc1cc(-c2ccc(N[C@H](c3ccc(F)cc3)C(C)(C)O)nn2)ccc1-n1cnc(C)c1 |  |
| > 20 | 6.7 | 7.2 | COc1cc(-c2ccc(N[C@@H](C)c3ccc(F)cc3)nn2)ccc1-n1cnc(C)c1 |  |
